In patent US10190093B2, “Artificial oocyte activation” (The Curators of the University of Missouri, priority 2013, dated 2019):
“And” between values parts separate entries of the source, which are not always exact repeats. Equal values may be shown once. “Also recorded” adds a separate entry of the source. Marks after values point to notes of the source that are not given here.

Experiments:
Format in all cases: cell-based, pig
[1] = tested on: activated porcine oocytes; assay: Treatment of chemically (THI/DTT) activated oocytes with TPEN, parthenogenetic embryo development
Procedure: Oocytes were obtained from either pre-pubertal gilt ovaries from an abattoir (Farmland Foods Inc., Milan, Mo.), or sow-derived oocytes that were purchased from Applied Reproductive Technology (Madison, Wis.). Immature oocytes from gilt ovaries were aspirated from medium size (3-6 mm) follicles by using an 18 gauge hypodermic needle attached to a 10 mL syringe. Oocytes with evenly dark cytoplasm and intact surrounding cumulus cells were then selected for maturation. Around 50 cumulus oocyte complexes were place in a well containing 500 μL of maturation medium, TCM 199 (Invitrogen, Grand Island, N.Y.) with 3.05 mM glucose, 0.91 mM sodium pyruvate, 0.57 mM cysteine, 10 ng/mL epidermal growth factor (EGF), 0.5 mg/mL luteinizing hormone (LH), 0.5 mg/mL follicle stimulating hormone (FSH), 10 ng/mL gentamicin (APP Pharm, Schaumburg, Ill.), and 0.1% polyvinyl alcohol (PVA) for 42-44 hr at 38.5° C., 5% CO2, in humidified air. […] At the end of the maturation, the surrounding cumulus cells were removed from the oocytes by vortexing for 3 min in the presence of 0.1% hyaluronidase. Oocytes with a visible polar body were selected in manipulation medium (TCM199 with 0.6 mM NaHCO3, 2.9 mM Hepes, 30 mM NaCl, 10 ng/mL gentamicin, and 3 mg/mL bovine serum albumin [BSA]; and osmolarity of 305) and then used for the experiments. Different oocyte activation methods were used for the experiments. As conventional activation methods, either electrical or chemical activation was used. For electrical activation, mature oocytes were activated in activation medium (0.3 M mannitol, 1.0 mM CaCl2, 0.1 mM MgCl2, and 0.5 mM Hepes) by two direct-current (DC) pulses (1-sec interval) at 1.2 kV/cm for 30 μsec (using BTX Electro Cell Manipulator, Harvard Apparatus, Holliston, Mass.). […] For TPEN mediated activation, mature oocytes were incubated in TL-Hepes media with various concentrations of TPEN for different durations. […] At the end of the culture, where applicable, the frequency of cleaved embryos and blastocysts, and total cell number in the blastocysts were recorded. Hoechst 33342 (1.2 mg/mL) was used to stain nuclei and the embryos were then evaluated by epi-fluorescence microscopy. Treatment of activated oocytes with TPEN was investigated for the potential to increase the efficiency of oocyte activation. […] It was hypothesized that the detrimental effect was due to excess stimuli from Ca^2+ signaling and TPEN. Therefore, lower concentrations of TPEN were introduced after activating oocytes with a conventional method. Incubating activated oocytes with a lower concentration of TPEN increased developmental potential of parthenogenetic embryos.

[2] = tested on: MII oocytes; assay: Intracellular calcium measurement (fura-2); details: oocytes exposed to TPEN 5, 10, and 200 μM
Procedure: The zonae pellucidae were removed after maturation and zona-free oocytes were loaded with the Ca^2+ indicator dye, fura-2. For this purpose, they were incubated in the presence of […] of the acetoxymethyl ester form of the dye and 0.02% pluronic F-127 for 40-50 min (both from Invitrogen). The dye loaded oocytes were transferred into a chamber with a cover-glass bottom and the chamber was then placed on the heated stage of an inverted microscope. Changes in the intracellular free Ca^2+ concentration were recorded using InCytIm2, a dual-wavelength fluorescence imaging system (Intracellular Imaging, Inc.; Cincinnati, Ohio). During measurements the emitted fluorescence was detected at 510 nm after exciting the dye alternately at 340 and 380 nm. The ratio of the two emitted fluorescence intensities was calculated and the data are presented as fluorescence ratio values. Ratios of 1.0 and 5.0 correspond to about 100 and 1,200 nM Ca^2+, respectively. In each treatment group the measurements were repeated at least 5 times using different oocytes.

[3] = tested on: SCNT embryos; assay: TPEN activation method on the development of SCNT embryos; details: SCNT embryos activated with TPEN (200 μM, 30 min) as major activating reagent
Procedure: At the end of the culture, where applicable, the frequency of cleaved embryos and blastocysts, and total cell number in the blastocysts were recorded. Hoechst 33342 (1.2 mg/mL) was used to stain nuclei and the embryos were then evaluated by epi-fluorescence microscopy. Additionally, the effect of the TPEN activation method alone on the development of SCNT embryos was tested.

Question: For `c1ccc(CN(CCN(Cc2ccccn2)Cc2ccccn2)Cc2ccccn2)nc1` [TPEN, N,N,N′,N′-tetrakis(2-pyridylmethyl)ethane-1,2-diamine], which “% blastocysts” value ([1]; THI/DTT + 5 μM TPEN, 30 min) is on record?
Answer: 27.2±1.7% and 27.2^b %

Question: What about the “% cleaved” value ([1]; THI/DTT + 5 μM TPEN, 30 min) of the same molecule?
Answer: 74.6^b %

Question: What about the “Total cell number in blastocysts” value ([1]; THI/DTT + 5 μM TPEN, 30 min) of the same molecule?
Answer: 33.1 ± 2.6^b

Question: What about the “% blastocysts” value ([1]; THI/DTT + 10 μM TPEN, 10 min) of the same molecule?
Answer: 21.7^b %

Question: What about the “% cleaved” value ([1]; THI/DTT + 10 μM TPEN, 10 min) of the same molecule?
Answer: 81.9^b %

Question: What about the “Total cell number in blastocysts” value ([1]; THI/DTT + 10 μM TPEN, 10 min) of the same molecule?
Answer: 31.2 ± 2.6^b

Question: And the blastocyst formation ([1]; chemically activated oocytes incubated with TPEN 100 μM, 45 min)?
Answer: no blastocyst formation was observed

Question: And the “intracellular Ca2+ increase” value [2]?
Answer: does not induce a Ca^2+ increase; also recorded: no Ca^2+ increase was detected

Question: What about the “Day 6 blastocyst formation” value [3] of the same molecule?
Answer: 25.8% (8/31)

Question: What about the “Day 7 blastocyst formation” value [3] of the same molecule?
Answer: 35.5% (11/31)
